Starred links: 1 amine or outer side, 2 acyl side, 3 side chain; linkers in the order of their positions; H or OH if unused. Positions of bridges follow the written chain, without caps; N, C: chain ends. Non-standard residues stand in square brackets, D forms with d. Residues, ends and D or L forms follow the SMILES beside them. *: point of attachment. βAsp = O=C(O)[C@H](CC(=O)[*:2])N[*:1]; His(π-Me) = Cn1cncc1C[C@H](N)C(=O)O; For = O=C*
How the values were obtained:
[1] = test system: M. tuberculosis (GyrA D94N); type: cell-based, Mycobacterium tuberculosis
[2] = test system: Mycobacterium tuberculosis H37Rv mc^26020 gyrA G88C; experiment: MIC, broth microdilution; type: cell-based
[3] = test system: Mycobacterium tuberculosis H37Rv mc^26020 gyrA G88S; experiment: MIC, broth microdilution; type: cell-based
[4] = test system: M. tuberculosis bacA (Rv1819c) mutants (L469P, L470P and S577R); type: cell-based, Mycobacterium tuberculosis

C[C@@H](O)[C@H](NC(=O)[C@H](Cc1c[nH]c2ccccc12)NC=O)C(=O)N[C@H](CCCNC(=N)N)C(=O)N[C@@H]1C(=O)N[C@@H](Cc2cncn2C)C(=O)N[C@H](C(=O)O)CC(=O)N[C@H](CO)C(=O)N[C@@H](Cc2ccccc2)C(=O)NCC(=O)N[C@H](CCCNC(=N)N)C(=O)N[C@@H](CO)C(=O)N[C@H](C(=O)O)CC(=O)O[C@@H]1C [evybactin] (For-WT[dR]T[His(π-Me)][βAsp][dS]FG[dR]S[βAsp]; ester 4-C)
effect of GyrA D94N mutation on susceptibility [1]: did not have any effect

COc1c(N2C[C@@H]3CCCN[C@@H]3C2)c(F)cc2c(=O)c(C(=O)O)cn(C3CC3)c12 [moxifloxacin]
susceptibility of GyrA G88C mutant [2]: resistant | susceptibility of GyrA G88S mutant [3]: more susceptible

bleomycin
MIC (after shift) [4]: 1 µg/mL

— publication PMC9844538 (Nature chemical biology, 2022)
